The results in this text go back to US12365850B2, “Water-miscible functional fluid, undiluted stock of water-miscible functional fluid, sterilizer for water-miscible functional fluid, and method of sterilizing water-miscible function fluid” (priority 2020, dated 2025).

Like-named read-outs stand apart in the source and are kept apart here.

The nature of data set [1]: pH drop suppression test of water-miscible cutting fluid (circulation and blue LED irradiation). Format: physicochemical.
In data set [2] the test system is bacteria. The data set can be described thus: Photosterilization test of neutral photosensitizers (bacterial count after light irradiation). Format: cell-based.
Setting [3] is: 100%×(pH at preparation−pH after continuing use)/(pH at preparation), riboflavin cutting fluid with the named antioxidant.
The mark [4] stands for this setting: class by pH change rate, riboflavin cutting fluid with the named antioxidant.
Where [5] appears, read: riboflavin cutting fluid containing the named antioxidant, one month, Table 3 (same values as Table 2).
Setting [6] is: wavelength 450 nm, irradiance 100 μW/cm2, light intensity 10 J/cm2, photosensitizer 50 ppm (Lumichrome 20 ppm).
Where [7] appears, read: wavelength 450 nm, irradiance 100 μW/cm2, light intensity 30 J/cm2, photosensitizer 50 ppm (Lumichrome 20 ppm).
The mark [8] stands for this setting: wavelength 450 nm, irradiance 100 μW/cm2, light intensity 50 J/cm2, photosensitizer 50 ppm (Lumichrome 20 ppm).
The mark [9] stands for this setting: wavelength 450 nm, irradiance 100 μW/cm2, light intensity 100 J/cm2, photosensitizer 50 ppm (Lumichrome 20 ppm).
Where [10] appears, read: wavelength 450 nm, irradiance 100 μW/cm2, light intensity 200 J/cm2, photosensitizer 50 ppm (Lumichrome 20 ppm).
[11] abbreviates: wavelength 450 nm, irradiance 100 μW/cm2, light intensity 400 J/cm2, photosensitizer 50 ppm (Lumichrome 20 ppm).

On to `NCC1CCCC(CN)C1` (stereo not shown) [1,3-Bis(aminomethyl)cyclohexane], for which the “pH change rate (%)” value in data set [1] (setting [3]) turned out to be 16.3%. Further, the “Evaluation of pH drop supression” value in data set [1] (setting [4]) is “B (pH change rate higher than 15% and at most 20%)”. The compound also displayed a pH change in data set [1] (setting [5]) of 1.4.

With `Sc1nc2ccccc2[nH]1` [2-mercaptobenzimidazole], in data set [1], the “Evaluation of pH drop supression” value was “C (key: A: pH change rate of 15% or lower; B: pH change rate higher than 15% and at most 20%; C: pH change rate higher than 20% and at most 30%; D: pH change rate higher than 30%)”; the pH change came out at 2.4; the “pH change rate (%)” value was determined as 27.9%.

`Cc1cc(C(C)(C)C)c(O)c(C(C)(C)C)c1` [BHT, butylated hydroxytoluene]: the “pH change rate (%)” value in data set [1] (setting [3]) came out at 11.6%. The “Evaluation of pH drop supression” value in data set [1] (setting [4]) is given as “A (pH change rate of 15% or lower)”. The same compound registered a pH change in data set [1] (setting [5]) of 1.

In the case of `Cc1c(C)c2c(c(C)c1O)CC[C@@](C)(CCC[C@H](C)CCC[C@H](C)CCCC(C)C)O2` [D-α-tocopherol], the “pH change rate (%)” value in data set [1] (setting [3]) was 7.0%. The “Evaluation of pH drop supression” value in data set [1] (setting [4]) was “A (pH change rate of 15% or lower)”. In addition, the pH change in data set [1] (setting [5]) is recorded as 0.6.

Regarding `CC(O)CNCC(C)O` (stereo not shown) [Di-isopropanolamine], in data set [1] (setting [3]), the “pH change rate (%)” value is 8.1%. Moreover, the “Evaluation of pH drop supression” value in data set [1] (setting [4]) is “A (pH change rate of 15% or lower)”. The pH change in data set [1] (setting [5]) is 0.7.

Regarding `OCCNCCO` [Diethanolamine], the “pH change rate (%)” value in data set [1] (setting [3]) stood at 8.1%. Moreover, the “Evaluation of pH drop supression” value in data set [1] (setting [4]) was “A (pH change rate of 15% or lower)”. In addition, in data set [1] (setting [5]), the pH change worked out at 0.7.

Turning to `O=C([O-])CN(CCN(CC(=O)[O-])CC(=O)O)CC(=O)O.[Na+].[Na+]` [Disodium edetate], in data set [1], the “Evaluation of pH drop supression” value is “A (key: A: pH change rate of 15% or lower; B: pH change rate higher than 15% and at most 20%; C: pH change rate higher than 20% and at most 30%; D: pH change rate higher than 30%)”; the pH change is reported as 0.8; the “pH change rate (%)” value is recorded as 9.3%.

For `Cc1cc2nc3c(=O)[nH]c(=O)nc-3n(C[C@H](O)[C@H](O)[C@H](O)CO)c2cc1C` [Example 1, Riboflavin], the “change in the bacterial count due to the light irradiation” value in data set [2] (result in words) is listed as “a decrease in the bacterial count was found”. Besides, the Bacterial count result in data set [2] (wavelength 275 nm, irradiance 100 μW/cm2, light intensity 10 J/cm2, photosensitizer 50 ppm) was “++ (bacterial count was 1.0×10^6 CFU/ml to 1.4×10^7 CFU/ml)”; in data set [2] (wavelength 275 nm, irradiance 100 μW/cm2, light intensity 30 J/cm2, photosensitizer 50 ppm) it was “++ (bacterial count was 1.0×10^6 CFU/ml to 1.4×10^7 CFU/ml)”; in data set [2] (wavelength 275 nm, irradiance 100 μW/cm2, light intensity 50 J/cm2, photosensitizer 50 ppm), “+ (bacterial count was at least 1.0×10^2 CFU/ml and less than 1.0×10^6 CFU/ml)”; in data set [2] (wavelength 275 nm, irradiance 100 μW/cm2, light intensity 100 J/cm2, photosensitizer 50 ppm), “+ (bacterial count was at least 1.0×10^2 CFU/ml and less than 1.0×10^6 CFU/ml)”; in data set [2] (wavelength 275 nm, irradiance 100 μW/cm2, light intensity 200 J/cm2, photosensitizer 50 ppm), “+ (bacterial count was at least 1.0×10^2 CFU/ml and less than 1.0×10^6 CFU/ml)”; in data set [2] (wavelength 275 nm, irradiance 100 μW/cm2, light intensity 400 J/cm2, photosensitizer 50 ppm), “− (bacterial count was at least 0 and less than 1.0×10^2 CFU/mil)”. Besides, the Bacterial count result is “++ (bacterial count was 1.0×10^6 CFU/ml to 1.4×10^7 CFU/ml)” in data set [2] (wavelength 380 nm, irradiance 1200 μW/cm2, light intensity 10 J/cm2, photosensitizer 50 ppm); “++ (bacterial count was 1.0×10^6 CFU/ml to 1.4×10^7 CFU/ml)” in data set [2] (wavelength 380 nm, irradiance 1200 μW/cm2, light intensity 30 J/cm2, photosensitizer 50 ppm); “++ (bacterial count was 1.0×10^6 CFU/ml to 1.4×10^7 CFU/ml)” in data set [2] (wavelength 380 nm, irradiance 1200 μW/cm2, light intensity 50 J/cm2, photosensitizer 50 ppm); “+ (bacterial count was at least 1.0×10^2 CFU/ml and less than 1.0×10^6 CFU/ml)” in data set [2] (wavelength 380 nm, irradiance 1200 μW/cm2, light intensity 100 J/cm2, photosensitizer 50 ppm); “+ (bacterial count was at least 1.0×10^2 CFU/ml and less than 1.0×10^6 CFU/ml)” in data set [2] (wavelength 380 nm, irradiance 1200 μW/cm2, light intensity 200 J/cm2, photosensitizer 50 ppm); “+ (bacterial count was at least 1.0×10^2 CFU/ml and less than 1.0×10^6 CFU/ml)” in data set [2] (wavelength 380 nm, irradiance 1200 μW/cm2, light intensity 400 J/cm2, photosensitizer 50 ppm). The Bacterial count entry in data set [2] (setting [6]) is “++ (bacterial count was 1.0×10^6 CFU/ml to 1.4×10^7 CFU/ml)”; in data set [2] (setting [7]) it was “+ (bacterial count was at least 1.0×10^2 CFU/ml and less than 1.0×10^6 CFU/ml)”; in data set [2] (setting [8]), “+ (bacterial count was at least 1.0×10^2 CFU/ml and less than 1.0×10^6 CFU/ml)”; in data set [2] (setting [9]), “+ (bacterial count was at least 1.0×10^2 CFU/ml and less than 1.0×10^6 CFU/ml)”; in data set [2] (setting [10]), “− (bacterial count was at least 0 and less than 1.0×10^2 CFU/mil)”; in data set [2] (setting [11]), “− (bacterial count was at least 0 and less than 1.0×10^2 CFU/mil)”. Further, the Bacterial count result is “++ (bacterial count was 1.0×10^6 CFU/ml to 1.4×10^7 CFU/ml)” in data set [2] (wavelength 500 nm, irradiance 100 μW/cm2, light intensity 10 J/cm2, photosensitizer 50 ppm); “++ (bacterial count was 1.0×10^6 CFU/ml to 1.4×10^7 CFU/ml)” in data set [2] (wavelength 500 nm, irradiance 100 μW/cm2, light intensity 30 J/cm2, photosensitizer 50 ppm); “++ (bacterial count was 1.0×10^6 CFU/ml to 1.4×10^7 CFU/ml)” in data set [2] (wavelength 500 nm, irradiance 100 μW/cm2, light intensity 50 J/cm2, photosensitizer 50 ppm); “++ (bacterial count was 1.0×10^6 CFU/ml to 1.4×10^7 CFU/ml)” in data set [2] (wavelength 500 nm, irradiance 100 μW/cm2, light intensity 100 J/cm2, photosensitizer 50 ppm); “+ (bacterial count was at least 1.0×10^2 CFU/ml and less than 1.0×10^6 CFU/ml)” in data set [2] (wavelength 500 nm, irradiance 100 μW/cm2, light intensity 200 J/cm2, photosensitizer 50 ppm); “+ (bacterial count was at least 1.0×10^2 CFU/ml and less than 1.0×10^6 CFU/ml)” in data set [2] (wavelength 500 nm, irradiance 100 μW/cm2, light intensity 400 J/cm2, photosensitizer 50 ppm).

For the compound `Cc1cc2nc3[nH]c(=O)[nH]c(=O)c3nc2cc1C` [Example 2, Lumichrome], the Bacterial count result in data set [2] (setting [6]) was “++ (bacterial count was 1.0×10^6 CFU/ml to 1.4×10^7 CFU/ml)”; in data set [2] (setting [7]), “+ (bacterial count was at least 1.0×10^2 CFU/ml and less than 1.0×10^6 CFU/ml)”; in data set [2] (setting [8]), “− (bacterial count was at least 0 and less than 1.0×10^2 CFU/mil)”; in data set [2] (setting [9]), “− (bacterial count was at least 0 and less than 1.0×10^2 CFU/mil)”; in data set [2] (setting [10]) it was “− (bacterial count was at least 0 and less than 1.0×10^2 CFU/mil)”; in data set [2] (setting [11]) it was “− (bacterial count was at least 0 and less than 1.0×10^2 CFU/mil)”.

Consider `CC(C)(C)c1cc(CCC(=O)OCC(COC(=O)CCc2cc(C(C)(C)C)c(O)c(C(C)(C)C)c2)(COC(=O)CCc2cc(C(C)(C)C)c(O)c(C(C)(C)C)c2)COC(=O)CCc2cc(C(C)(C)C)c(O)c(C(C)(C)C)c2)cc(C(C)(C)C)c1O` [Irganox 1010], for which the “pH change rate (%)” value in data set [1] (setting [3]) came out at 5.8%. For the same compound, the “Evaluation of pH drop supression” value in data set [1] (setting [4]) is reported as “A (pH change rate of 15% or lower)”. Moreover, the pH change in data set [1] (setting [5]) is given as 0.5.

Consider `CC(C)(C)c1cc(Cn2c(=O)n(Cc3cc(C(C)(C)C)c(O)c(C(C)(C)C)c3)c(=O)n(Cc3cc(C(C)(C)C)c(O)c(C(C)(C)C)c3)c2=O)cc(C(C)(C)C)c1O` [Irganox 3114], for which, in data set [1] (setting [3]), the “pH change rate (%)” value was determined as 9.3%. For the same compound, in data set [1] (setting [4]), the “Evaluation of pH drop supression” value was “A (pH change rate of 15% or lower)”. Moreover, the pH change in data set [1] (setting [5]) is reported as 0.8.

Take `NCCO` [Monoethanol amine]: the “pH change rate (%)” value in data set [1] (setting [3]) was found to be 17.4%. Besides, the “Evaluation of pH drop supression” value in data set [1] (setting [4]) is “B (pH change rate higher than 15% and at most 20%)”. The same compound showed a pH change in data set [1] (setting [5]) of 1.5.

As to `CC(O)CN` (stereo not shown) [Monoisopropanolamine], the “pH change rate (%)” value in data set [1] (setting [3]) is 19.8%. Also, in data set [1] (setting [4]), the “Evaluation of pH drop supression” value is “B (pH change rate higher than 15% and at most 20%)”. Moreover, in data set [1] (setting [5]), the pH change is 1.7.

In the case of `CCC(C)Nc1ccc(NC(C)CC)cc1` (stereo not shown) [N,N′-Di-sec-butyl-1,4-phenylenediamine], the “pH change rate (%)” value in data set [1] (setting [3]) is 4.7%. Moreover, the “Evaluation of pH drop supression” value in data set [1] (setting [4]) is “A (pH change rate of 15% or lower)”. In data set [1] (setting [5]), this compound yielded a pH change of 0.4.

Take `O=C1O[C@H]([C@@H](O)CO)C([O-])=C1O.[Na+]` [Sodium ascorbate]: the “pH change rate (%)” value in data set [1] (setting [3]) stood at 24.4%. In addition, the “Evaluation of pH drop supression” value in data set [1] (setting [4]) was “C (pH change rate higher than 20% and at most 30%)”. For the same compound, the pH change in data set [1] (setting [5]) came to 2.1.

With `CC(O)CN(CC(C)O)CC(C)O` (stereo not shown) [Triisopropanolamine], in data set [1], the “Evaluation of pH drop supression” value was “A (key: A: pH change rate of 15% or lower; B: pH change rate higher than 15% and at most 20%; C: pH change rate higher than 20% and at most 30%; D: pH change rate higher than 30%)”; the pH change came to 0.8; the “pH change rate (%)” value turned out to be 9.3%.

On to `CC(C)(C)c1ccc(OP(Oc2ccc(C(C)(C)C)cc2C(C)(C)C)Oc2ccc(C(C)(C)C)cc2C(C)(C)C)c(C(C)(C)C)c1` [Tris(2,4-di-tert-butylphenyl) phosphite], for which, in data set [1], the “Evaluation of pH drop supression” value was “A (key: A: pH change rate of 15% or lower; B: pH change rate higher than 15% and at most 20%; C: pH change rate higher than 20% and at most 30%; D: pH change rate higher than 30%)”; the pH change is recorded as 0.4; the “pH change rate (%)” value worked out at 4.7%.
